Test results reported in patent publication US20090275555A1, “Substituted indole ligands for the ORL-1 receptor” (priority 2004, published 2009).
Structures can show the parent of a compound that is named as a salt. Where two headings read alike, the source gives them in different places.

Tests used:
ORL-1 receptor [1] = target: T1, ORL-1 receptor (Cavia porcellus, UniProt P47748); assay: Electrically stimulated guinea pig ileum (GPI) assay; format: cell-based
T1 construct: evaluated for ORL-1 functional activity in electrically stimulated guinea pig ileum; from tissue; host or cells: guinea pig ileum
Experimental: Compounds of the invention are evaluated for ORL-1 functional activity in electrically stimulated guinea pig ileum, in agreement with the experimental protocol described in Caló et. al., Br. J. Pharmacol. 129, 1183, (2000). The ORL-1 antagonist activity (pKb) is evaluated against the endogenous ORL-1 agonist N/OFQ.

ORL-1 receptor [2] = target: ORL-1 receptor (Homo sapiens, UniProt P41146); assay: Receptor binding studies, radioligand [3H]-AcRYYRWK-NH2
Experimental: The receptor binding studies were carried out on 96-well plates; the incubation medium was Tris HCl pH 7.4 (4° C.) containing MgCl2 (5 mM), EGTA (0.2 mM), BSA (0.1%), with a final volume of 1.0 ml, using as radioligand [^3H]-AcRYYRWK-NH2 (Amersham, 103 Ci/mmol). The samples were incubated at 37° C. for 120 min. and were then filtered off via Whatman GF/B filters pre-treated with 0.2% polyethylenimine. The filters were washed three times with Tris HCl buffer pH 7.4 (4° C.). The radioactivity present on the filters was measured using a Packard Top Count microplate scintillation counter.

[3] = electrically stimulated guinea pig ileum, against the endogenous ORL-1 agonist N/OFQ, read-out: Antagonist activity (GPI) pKb vs N/OFQ (converted)
[4] = ORL-1 receptor, radioligand [3H]-AcRYYRWK-NH2, read-out: Binding affinity Ki

Sequence of ORL-1 receptor (Homo sapiens, UniProt P41146) (P41146 whole entry): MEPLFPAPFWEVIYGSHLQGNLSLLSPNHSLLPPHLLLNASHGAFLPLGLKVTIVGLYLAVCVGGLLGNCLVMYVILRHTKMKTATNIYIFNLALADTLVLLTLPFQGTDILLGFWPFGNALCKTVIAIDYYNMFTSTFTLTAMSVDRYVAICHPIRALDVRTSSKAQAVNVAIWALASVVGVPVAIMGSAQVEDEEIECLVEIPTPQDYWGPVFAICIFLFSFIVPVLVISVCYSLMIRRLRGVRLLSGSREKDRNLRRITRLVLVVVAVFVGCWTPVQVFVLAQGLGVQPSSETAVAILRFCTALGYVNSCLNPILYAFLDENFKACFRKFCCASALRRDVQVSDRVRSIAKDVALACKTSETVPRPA
T1 sequence (P47748 whole entry): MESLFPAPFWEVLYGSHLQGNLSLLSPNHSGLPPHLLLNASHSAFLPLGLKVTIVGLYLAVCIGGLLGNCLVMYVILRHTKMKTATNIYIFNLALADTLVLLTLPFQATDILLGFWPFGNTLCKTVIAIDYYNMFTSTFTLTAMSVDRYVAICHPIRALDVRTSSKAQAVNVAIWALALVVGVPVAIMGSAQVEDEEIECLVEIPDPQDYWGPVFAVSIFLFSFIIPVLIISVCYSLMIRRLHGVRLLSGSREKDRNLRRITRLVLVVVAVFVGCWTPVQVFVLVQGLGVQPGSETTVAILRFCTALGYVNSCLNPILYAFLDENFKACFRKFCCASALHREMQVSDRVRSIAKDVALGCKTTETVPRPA

| Structure (SMILES) | Kb (ORL-1 receptor [1]; [3]) [nM] | Ki (ORL-1 receptor [2]; [4]) [nM] | Kb (ORL-1 receptor [1]) [nM] | Ki (ORL-1 receptor [2]) [nM] |
| --- | --- | --- | --- | --- |
| O=C(c1[nH]c2ccccc2c1CN1CCC(c2c(Cl)cccc2Cl)CC1)N1CCN(CCCO)CC1 [Example 75, {3-[4-(2,6-Dichloro-phenyl)-piperidin-1-ylmethyl]-1H-indol-2-yl}-[4-(3-hydroxy-propyl)-piperaizn-1-yl]-methanone] | 3.02 | 1.5 | – | – |
| Cc1cccc(C)c1C1CCN(Cc2c(C(=O)N3C[C@@H]4C[C@H]3CO4)[nH]c3ccccc23)CC1 [Example 96] | 1.95 | 10 | – | – |
| Cc1cccc(C)c1C1CCN(Cc2c(C(=O)N3CCN(CCOCCO)CC3)[nH]c3ccccc23)CC1 [Example 97, {3-[4-(2,6-Dimethyl-phenyl)-piperidin-1-ylmethyl]-1H-indol-2-yl}-{4-[2-(2-hydroxy-ethoxy)-ethyl]-piperazin-1-yl}-methanone] | – | – | 1 | 6.5 |
| Cc1cccc(C)c1C1CCN(Cc2c(C(=O)N3CCC4(CCN(C)C4)C3)[nH]c3ccccc23)CC1 (stereo not drawn) [Example 109, {3-[4-(2,6-Dimethyl-phenyl)-piperidin-1-ylmethyl]-1H-indol-2-yl}-(7-methyl-2,7-diaza-spiro[4.4]non-2-yl)-methanone] | 1.23 | 5.4 | – | – |
| NC(=O)Cn1c(-c2ccccc2)c(CN2CCC(c3c(Cl)cccc3Cl)CC2)c2ccccc21 [Example 143, 2-(3-[4-(2,6-Dichloro-phenyl)-piperidin-1-ylmethyl]-2-phenyl-indol-1-yl)-acetamide] | 2.24 | 3.2 | – | – |
| NC(=O)Cn1c(C(=O)N2CCOCC2)c(CN2CCC(c3c(Cl)cccc3Cl)CC2)c2ccccc21 [Example 150, 2-[3-[4-(2,6-Dichloro-phenyl)-piperidin-1-ylmethyl]-2-(morpholine-4-carbonyl)-indol-1-yl]-acetamide hydrochloride] | – | 8 | 8.91 | – |
| CN1CCC(NC(=O)Cn2c(-c3ccccc3)c(CN3CCC(c4c(Cl)cccc4Cl)CC3)c3ccccc32)CC1 [Example 160, 2-{3-[4-(2,6-Dichloro-phenyl)-piperidin-1-ylmethyl]-2-phenyl-indol-1-yl}-N-(1-methyl-piperidin-4-yl)-acetamide] | – | – | 1.74 | 0.7 |
| CN1CCC(NC(=O)Cn2c(C(=O)N3CCOCC3)c(CN3CCC(c4c(Cl)cccc4Cl)CC3)c3ccccc32)CC1 [Example 161, 2-[3-[4-(2,6-Dichloro-phenyl)-piperidin-1-ylmethyl]-2-(morpholine-4-carbonyl)-indol-1-yl]-N-(1-methyl-piperidin-4-yl)-acetamide dihydrochloride] | 0.955 | 8.2 | – | – |
| Cc1cccc(C)c1C1CCN(Cc2c(-c3ccccc3)n(CC(=O)NC3CCN(C)CC3)c3ccccc23)CC1 [Example 165, 2-{3-[4-(2,6-Dimethyl-phenyl)-piperidin-1-ylmethyl]-2-phenyl-indol-1-yl}-N-(1-methyl-piperidin-4-yl)-acetamide ditrifluoroacetate] | – | 4.6 | 4.17 | – |
